Experimental data taken from publication PMC9605737, “Identification of 6ω-cyclohexyl-2-(phenylamino carbonylmethylthio)pyrimidin-4(3H)-ones targeting the ZIKV NS5 RNA dependent RNA polymerase” (Frontiers in Chemistry, 2022).
Where two headings read alike, the source gives them in different places.

Assays:
[1] = test system: ZIKV; assay: Plaque assay, anti-ZIKV activity in Vero cells; format: cell-based, Zika virus; conditions: for EC50: read-out: EC50 (anti-ZIKV activity, plaque formation)
Description: Initially, the novel acetylarylamine-S-DACOs 4a-z were tested for their cytotoxicity and anti-ZIKV activity in Vero cells by plaque formation according to previously detailed procedure ([Xu et al., 2017]).
Vero cells were inoculated in a 12-well plate at 3 × 10^5 cells/ml and cultured overnight, the medium was discarded and cells were washed with PBS, then the ZIKV (MOI = 0.5) was added to infect at 37°C for 2 h. The cells were washed with PBS, and then a mixture of DMEM supplemented with 4% FBS and 2% low-melting agarose (Amresco, United States) was overlaid on the cells. Next, the cells were fixed with 4% paraformaldehyde for 15 min at 5d post-infection (hpi), washed twice with PBS and stained with 0.8% crystal violet for 10 min. Finally, an enzyme-linked fluorescence spot spectrometer (CTL, United States) was used for image acquisition.

[2] = MTT cytotoxicity assay in Vero cells; format: cell-based, African green monkey; conditions: African green monkey, triplicate, >200 = highest soluble concentration not reaching 50% cytotoxicity
Description: (§1) MTT assay was used to detect the toxicity of the compound. Cells were seeded in 96-well plates and cultured overnight. Compounds with different concentrations were added and incubated for 96 h. Then, 20 μl of 5 mg/ml MTT (Sigma-Aldrich, United States) solution was added to each well and kept at 37°C for 4 h. Subsequently, 100 μl of 12% SDS-50% DMF (Sigma-Aldrich, United States) solution was added and incubated overnight at 37°C. After the crystalline formamidine was completely dissolved, the optical density (OD) value was measured using a microplate reader (BioTek, United States) with a wavelength of 570 nm and a reference wavelength of 630 nm.
(§2) The 50% effective concentration (EC50) and 50% cytotoxic concentration (CC50) of the compound were calculated according to the Reed and Muench method, inhibition rate of ZIKV RNA yield- [(1-drug treatment/positive control) × 100]. The data and graphs were processed using GraphPad Prism8 software, expressed as mean ± standard deviation (Mean ± SD), comparison between groups using ANOVA, p < 0.05 was considered statistically significant.

[3] = test system: Vero cells; assay: MTT cytotoxicity assay in Vero cells; format: cell-based, African green monkey; conditions: 96 h, triplicate, >200 = highest soluble concentration not reaching 50% cytotoxicity
Description: as §1, §2

[4] = test system: HCV; design: method as in Wu et al. (2017); conditions: Figure 3; ref Wu et al. (2017); read-out: EC50 (anti-HCV); cited from earlier work
[5] = Figure 3; ref Wu et al. (2017); cited from earlier work
[6] = target: T1, ZIKV RdRp (Zika virus, UniProt A0A024B7W1); design: method as in Sáez-Álvarez et al., 2019; conditions: positive control drug; ref Sáez-Álvarez et al., 2019; cited from earlier work
T1 construct: we expressed and purified ZIKV RdRp domain; made in house; host or cells: Escherichia coli BL21 (DE3)
T1 sequence (A0A024B7W1 2793-3423): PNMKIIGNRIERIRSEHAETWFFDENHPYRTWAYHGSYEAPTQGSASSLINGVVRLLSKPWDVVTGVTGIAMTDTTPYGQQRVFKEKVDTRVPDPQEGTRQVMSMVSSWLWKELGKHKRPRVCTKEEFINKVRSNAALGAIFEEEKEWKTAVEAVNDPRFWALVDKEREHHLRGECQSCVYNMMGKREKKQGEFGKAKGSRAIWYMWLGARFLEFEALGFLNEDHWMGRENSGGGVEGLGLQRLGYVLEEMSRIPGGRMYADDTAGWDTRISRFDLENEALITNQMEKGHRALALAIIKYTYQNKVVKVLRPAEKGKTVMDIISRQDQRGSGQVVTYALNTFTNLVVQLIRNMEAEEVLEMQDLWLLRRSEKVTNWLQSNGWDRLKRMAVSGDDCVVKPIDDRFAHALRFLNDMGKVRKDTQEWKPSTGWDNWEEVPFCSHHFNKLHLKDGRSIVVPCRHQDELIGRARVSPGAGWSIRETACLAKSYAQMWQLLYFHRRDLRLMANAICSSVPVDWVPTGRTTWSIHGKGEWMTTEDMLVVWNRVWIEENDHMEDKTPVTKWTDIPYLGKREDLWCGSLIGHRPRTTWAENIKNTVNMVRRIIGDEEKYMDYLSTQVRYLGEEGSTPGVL

[7] = Zika virus, plaque assay, independently in triplicate
[8] = plaque assay, independently in triplicate

Row | Compound | EC50 [1, 7] | CC50 at 96 h [2] | melting point | other results
1 | CCc1c(C2CCCCC2)nc(SCC(=O)Nc2ccccc2OC)[nH]c1=O [Compound 4a, 2-[(4-cyclohexyl-5-ethyl-6-oxo-1,6-dihydropyrimidin-2-yl)thio]-N-(2-methoxyphenyl)acetamide] | > 50 µM | > 200 µM |  | 
2 | CCc1c(C2CCCCC2)nc(SCC(=O)Nc2cccc(OC)c2)[nH]c1=O [Compound 4c, 2-[(4-cyclohexyl-5-ethyl-6-oxo-1,6-dihydropyrimidin-2-yl)thio]-N-(3-methoxyphenyl)acetamide] | > 50 µM | 109 ± 3.19 µM | 207 to 209 °C | 
3 | CCc1c(C2CCCCC2)nc(SCC(=O)Nc2ccc(OC)cc2)[nH]c1=O [Compound 4e, 2-[(4-cyclohexyl-5-ethyl-6-oxo-1,6-dihydropyrimidin-2-yl)thio]-N-(4-methoxyphenyl)acetamide] | > 50 µM | > 200 µM |  | 
4 | CCc1c(C2CCCCC2)nc(SCC(=O)Nc2ccccc2F)[nH]c1=O [Compound 4g, 2-[(4-cyclohexyl-5-ethyl-6-oxo-1,6-dihydropyrimidin-2-yl)thio]-N-(2-fluorophenyl)acetamide] | 16.3 ± 1.31 µM | > 200 µM | 206 to 208 °C | SI (selectivity index, CC50/EC50 ratio) [1]: >12.27
5 | CCc1c(C2CCCCC2)nc(SCC(=O)Nc2cccc(F)c2)[nH]c1=O [Compound 4i, 2-[(4-cyclohexyl-5-ethyl-6-oxo-1,6-dihydropyrimidin-2-yl)thio]-N-(3-fluorophenyl)acetamide] | 19.4 ± 0.38 µM | > 200 µM | 184 to 187 °C | SI (selectivity index, CC50/EC50 ratio) [1]: >10.33
6 | CCc1c(C2CCCCC2)nc(SCC(=O)Nc2ccc(F)cc2)[nH]c1=O [Compound 4k, 2-[(4-cyclohexyl-5-ethyl-6-oxo-1,6-dihydropyrimidin-2-yl)thio]-N-(4-fluorophenyl)acetamide] | > 50 µM | > 200 µM | 273 to 274 °C | 
7 | CCc1c(C2CCCCC2)nc(SCC(=O)Nc2ccc(F)cc2F)[nH]c1=O [Compound 4s, 2-[(4-cyclohexyl-5-ethyl-6-oxo-1,6-dihydropyrimidin-2-yl)thio]-N-(2,4-difluorophenyl)acetamide] | > 50 µM | > 200 µM | 227 to 229 °C | 
8 | CCc1c(C2CCCCC2)nc(SCC(=O)Nc2cc(F)ccc2F)[nH]c1=O [Compound 4u, 2-[(4-cyclohexyl-5-ethyl-6-oxo-1,6-dihydropyrimidin-2-yl)thio]-N-(2,5-difluorophenyl)acetamide] | > 50 µM | > 200 µM | 190 to 192 °C | 
9 | CCc1c(CC2CCCCC2)nc(SCC(=O)Nc2cc(F)ccc2OC)[nH]c1=O [Compound 4z, 2-{[4-(cyclohexylmethyl)-5-ethyl-6-oxo-1,6-dihydropyrimidin-2-yl]thio}-N-(5-fluoro-2-methoxyphenyl)acetamide] |  |  | 182 to 183 °C | EC50 (anti-ZIKV activity, plaque formation) [1, 8]: did not show activity; EC50 [1, 8]: > 50 µM; CC50 [3]: > 200 µM
10 | NC(=O)c1ncn([C@@H]2O[C@H](CO)[C@@H](O)[C@H]2O)n1 [Ribavirin, reference compound] | 48.9 ± 3.42 µM | > 200 µM |  | SI (selectivity index, CC50/EC50 ratio) [1]: >4.09
11 | CCc1c(CC2CCCCC2)nc(SCC(=O)C(O)c2ccc(F)cc2)[nH]c1=O (stereo not shown) [compound B, reference compound] |  |  |  | EC50 [4]: 2.02 µM; CC50 [5]: 196 µM
12 | Heparin |  |  |  | inhibition of ZIKV RdRp activity [6]: significantly inhibited
